Results on 4 molecules are retold here after patent US20100160431A1, “Methods and Compositions for the Treatment of Viral Infections” (priority 2006, published 2010).

Structures are written as SMILES.

Data set [1] is described as follows: Release profile of amantadine and oseltamivir combination (USP II Paddle system, water). It counts as physicochemical. The source says: The cumulative fraction is the amount of drug substance released from the formulation matrix to the serum or gut environment (e.g., U.S. Pat. No. 4,839,177) or as measured with a USP II Paddle system using water as the dissolution medium.

The conditions of data set [2]: cited from earlier work; for Human PK T½ / Tmax: humans.
For data set [3] the following is noted: in vivo; cited from earlier work.
Data set [4] can be described thus: Time to steady state concentration with extended release amantadine or rimantadine. Particulars: patient with influenza A; 100 mg or more once daily; formulated as in Example 5.

For the molecule `NC12CC3CC(CC(C3)C1)C2` [Amantadine, amantadine], the cum. fraction in data set [1] (Time 1) came to 0.2; in data set [1] (Time 2), 0.3; in data set [1] (Time 4) it was 0.4; in data set [1] (Time 8), 0.5; in data set [1] (Time 12), 0.6; in data set [1] (Time 16), 0.7. The cum. fraction in data set [1] (Time 20) is on record as 0.8; in data set [1] (Time 24), 0.9.

With `CCOC(=O)C1=C[C@@H](OC(CC)CC)[C@H](NC(C)=O)[C@@H](N)C1` [oseltamivir/TAMIFLU ®, oseltamivir], the cum. fraction was found to be 0.1 in data set [1] (Time 1); 0.15 in data set [1] (Time 2); 0.2 in data set [1] (Time 4); 0.35 in data set [1] (Time 8); 0.5 in data set [1] (Time 12); 0.65 in data set [1] (Time 16). The cum. fraction in data set [1] (Time 20) turned out to be 0.8; in data set [1] (Time 24), 1. Besides, the T½ result in data set [2] (head of Table 4) is recorded as “T½ = 3 hrs”. Also, the “Human PK T½” value in data set [2] is 3 h. Moreover, the Tmax – broadly, the time from dosing to the highest level – in data set [2] was 3 to 4 h.

On to `CC(=O)N[C@H]1[C@H]([C@H](O)[C@H](O)CO)OC(C(=O)O)=C[C@@H]1NC(=N)N` [zanamivir/RELENZA ®, zanamivir], for which, in data set [2], the “Human PK T½” value was 2.5 to 5.1 h and the “Tmax” value is 1 to 2 h.

Turning to `CC(N)C12CC3CC(CC(C3)C1)C2` (centres unmarked) [Rimantadine, rimantadine], the “Dose Dependent Toxicity” value in data set [3] is “Insomnia”. Moreover, the “time to therapeutically effective steady state serum concentration” value in data set [4] is reported as “three”.
